Experimental data as given in patent US8765944B2, “Compounds for the treatment of hepatitis C” (priority 2010, dated 2014).

tested on: HCV pseudoparticles; assay: HCV pseudoparticle infection assay (luciferase reporter, Huh7 cells); format: cell-based, HCV (genotype 1b E1 and E2 envelope); details: Hepatitis C virus, genotype 1b, Huh-7, 48 h, HCV pseudoparticles (genotype 1b), luciferase activity 2 days after infection

| SMILES | EC50 [nM] |
| --- | --- |
| CN(C)CC1(S(=O)(=O)NC(=O)c2ccc(Nc3nc(NC4(c5ccc(Cl)cc5)CC4)nc(OCC(F)(F)F)n3)cc2)CC1 [Example 1012] | 0.25 |
| CS(=O)(=O)NC(=O)CNC(=O)c1ccc(Nc2nc(NC3(c4ccc(Cl)cc4)CC3)nc(OCC(F)(F)F)n2)cc1 [Example 2009] | 97 |
| C=C[C@@H]1C[C@]1(NC(=O)CCCNC(=O)c1ccc(Nc2nc(NC3(c4ccc(Cl)cc4)CC3)nc(OCC(F)(F)F)n2)cc1)C(=O)NS(=O)(=O)C1CC1 [Example 2032] | 1.3 |
| CNC(=O)OCC1(S(=O)(=O)NC(=O)c2ccc(Nc3nc(NC4(c5ccc(Cl)cc5)CC4)nc(OCC(F)(F)F)n3)cc2)CC1 [Example 1026] | 103 |
| O=C(NS(=O)(=O)C1(CN2CCCC2)CC1)c1ccc(Nc2nc(NC3(c4ccc(Cl)cc4)CC3)nc(OCC(F)(F)F)n2)cc1 [Example 1011] | 0.48 |
| CCC(=O)NS(=O)(=O)c1ccc(Nc2nc(NC3(c4ccc(Cl)cc4)CC3)nc(OCC(F)(F)F)n2)cc1 [Example 8004] | 2980 |
| CC(C)C(=O)NS(=O)(=O)c1ccc(Nc2nc(NC3(c4ccc(Cl)cc4)CC3)nc(OCC(F)(F)F)n2)cc1 [Example 8007] | 5400 |
| O=C(NS(=O)(=O)c1ccc(Nc2nc(NC3(c4ccc(Cl)cc4)CC3)nc(OCC(F)(F)F)n2)cc1)C1(CN2CCOCC2)CC1 [Example 3003] | 822 |
| O=C(NS(=O)(=O)c1ccc(Nc2nc(NC3(c4ccc(Cl)cc4)CC3)nc(OCC(F)(F)F)n2)cc1)C1CC1 [Example 8006] | 2990 |

same assay, conditions: Hepatitis C virus, genotype 1b, Huh-7, 48 h, HCV pseudoparticles (genotype 1b), luciferase activity 2 days after infection, class

| SMILES | EC50 [nM] |
| --- | --- |
| CCS(=O)(=O)NC(=O)CCCCNC(=O)c1ccc(Nc2nc(NC3(c4ccc(Cl)cc4)CC3)nc(OCC(F)(F)F)n2)cc1 [Example 2014] | 0.5 to 100 |
| CC(C)S(=O)(=O)NC(=O)CCNC(=O)c1ccc(Nc2nc(NC3(c4ccc(Cl)cc4)CC3)nc(OCC(F)(F)F)n2)cc1 [Example 2020] | 0.5 to 100 |
| CC(C)(CNC(=O)c1ccc(Nc2nc(NC3(c4ccc(Cl)cc4)CC3)nc(OCC(F)(F)F)n2)cc1)C(=O)NC1(C(=O)NS(=O)(=O)C2CC2)CC1 [Example 2095] | 0.5 to 100 |
| CN(C)CC1(S(=O)(=O)NC(=O)c2ccc(Nc3nc(NC4(c5ccc(Cl)cc5)CC4)nc(OCC(F)(F)F)n3)cc2)CC1 [Example 1012] | 0.5 to 100 |
| CCC1(S(=O)(=O)NC(=O)C2(CNC(=O)c3ccc(Nc4nc(NC5(c6ccc(Cl)cc6)CC5)nc(OCC(F)(F)F)n4)cc3)CC2)CC1 [Example 2076] | 0.5 to 100 |
| O=C(CCCNC(=O)c1ccc(Nc2nc(NC3(c4ccc(Cl)cc4)CC3)nc(OCC(F)(F)F)n2)cc1)N[C@]1(C(=O)NS(=O)(=O)C2CC2)C[C@H]1C1CC1 [Example 2036] | 0.5 to 100 |
| O=C(NS(=O)(=O)C1CCCC1)c1ccc(Nc2nc(NC3(c4ccc(Cl)cc4)CC3)nc(OCC(F)(F)F)n2)cc1 [Example 8017] | 0.5 to 100 |
| O=C(NCC1(C(=O)NS(=O)(=O)C2CC2)CC1)c1ccc(Nc2nc(NC3(c4ccc(Cl)cc4)CC3)nc(OCC(F)(F)F)n2)cc1 [Example 2070] | 0.5 to 100 |
| COCCS(=O)(=O)NC(=O)C(C)(C)CNC(=O)c1ccc(Nc2nc(NC3(c4ccc(Cl)cc4)CC3)nc(OCC(F)(F)F)n2)cc1 [Example 2094] | 0.5 to 100 |
| CS(=O)(=O)NC(=O)CNC(=O)c1ccc(Nc2nc(NC3(c4ccc(Cl)cc4)CC3)nc(OCC(F)(F)F)n2)cc1 [Example 2009] | 0.5 to 100 |
| C=C[C@@H]1C[C@]1(NC(=O)CCCNC(=O)c1ccc(Nc2nc(NC3(c4ccc(Cl)cc4)CC3)nc(OCC(F)(F)F)n2)cc1)C(=O)NS(=O)(=O)C1CC1 [Example 2032] | 0.5 to 100 |
| O=C(NS(=O)(=O)CCCN1CCCC1)c1ccc(Nc2nc(NC3(c4ccc(Cl)cc4)CC3)nc(N3CCCC3)n2)cc1 [Example 8003] | 1000 to 5000 |
| C=C[C@@H]1C[C@]1(NC(=O)CCCCNC(=O)c1ccc(Nc2nc(NC3(c4ccc(Cl)cc4)CC3)nc(OCC(F)(F)F)n2)cc1)C(=O)NS(=O)(=O)C1CCC1 [Example 2026] | 0.5 to 100 |
| CCCC1(S(=O)(=O)NC(=O)C2(CNC(=O)c3ccc(Nc4nc(NC5(c6ccc(Cl)cc6)CC5)nc(OCC(F)(F)F)n4)cc3)CC2)CC1 [Example 2077] | 0.5 to 100 |
| CS(=O)(=O)NC(=O)c1ccc(Nc2nc(NC3(c4ccc(Cl)cc4)CC3)nc(OCC(F)(F)F)n2)cc1 [Example 1002] | 0.5 to 100 |
| C=C[C@@H]1C[C@]1(NC(=O)C(C)(C)CNC(=O)c1ccc(Nc2nc(NC3(c4ccc(Cl)cc4)CC3)nc(OCC(F)(F)F)n2)cc1)C(=O)NS(=O)(=O)C1CCC1 [Example 2083] | 0.5 to 100 |
| CNC(=O)OCC1(S(=O)(=O)NC(=O)c2ccc(Nc3nc(NC4(c5ccc(Cl)cc5)CC4)nc(OCC(F)(F)F)n3)cc2)CC1 [Example 1026] | 100 to 1000 |
| COCC1(S(=O)(=O)N(C)C(=O)c2ccc(Nc3nc(OC)nc(N(C)C4(c5ccc(Cl)cc5)CC4)n3)cc2)CC1 [Example 8009] | 1000 to 5000 |
| CC(C)NCC1(C(=O)NS(=O)(=O)c2ccc(Nc3nc(NC4(c5ccc(Cl)cc5)CC4)nc(OCC(F)(F)F)n3)cc2)CC1 [Example 3005] | 1000 to 5000 |
| O=C(NS(=O)(=O)C1(CN2CCCC2)CC1)c1ccc(Nc2nc(NC3(c4ccc(Cl)cc4)CC3)nc(OCC(F)(F)F)n2)cc1 [Example 1011] | 0.5 to 100 |
| CC1(C)CCCN1CC1(S(=O)(=O)NC(=O)c2ccc(Nc3nc(NC4(c5ccc(Cl)cc5)CC4)nc(OCC(F)(F)F)n3)cc2)CC1 [Example 1016] | 0.5 to 100 |
| CN(C)CC1(S(=O)(=O)NC(=O)c2ccc(Nc3nc(OCC(F)(F)F)nc(N4CCN(S(=O)(=O)C5CC5)CC4)n3)cc2)CC1 [Example 8025] | 1000 to 5000 |
| CC(C)S(=O)(=O)NC(=O)CCCCNC(=O)c1ccc(Nc2nc(NC3(c4ccc(Cl)cc4)CC3)nc(OCC(F)(F)F)n2)cc1 [Example 2013] | 0.5 to 100 |
| CC(C)OC(=O)NCCS(=O)(=O)NC(=O)c1ccc(Nc2nc(NC3(c4ccc(Cl)cc4)CC3)nc(OCC(F)(F)F)n2)cc1 [Example 1045] | 0.5 to 100 |
| CCC(=O)NS(=O)(=O)c1ccc(Nc2nc(NC3(c4ccc(Cl)cc4)CC3)nc(OCC(F)(F)F)n2)cc1 [Example 8004] | 1000 to 5000 |
| CN(C)S(=O)(=O)NC(=O)CCNC(=O)CCCNC(=O)c1ccc(Nc2nc(NC3(c4ccc(Cl)cc4)CC3)nc(OCC(F)(F)F)n2)cc1 [Example 2060] | 0.5 to 100 |

| SMILES | EC50 [nM] |
| --- | --- |
| CC(C)N(C(=O)C1(CNC(=O)c2ccc(Nc3nc(NC4(c5ccc(Cl)cc5)CC4)nc(OCC(F)(F)F)n3)cc2)CC1)S(N)(=O)=O [Example 2079] | 0.5 to 100 |
| CC(C)S(=O)(=O)NC(=O)[C@H](C)NC(=O)CCCNC(=O)c1ccc(Nc2nc(NC3(c4ccc(Cl)cc4)CC3)nc(OCC(F)(F)F)n2)cc1 [Example 2055] | 0.5 to 100 |
| CC(C)(C)OC(=O)N1C[C@@H](NC(=O)c2ccc(Nc3nc(NC4(c5ccc(Cl)cc5)CC4)nc(OCC(F)(F)F)n3)cc2)C[C@@H]1C(=O)NC1(C(=O)NS(=O)(=O)C2CC2)CC1 [Example 5002] | 0.5 to 100 |
| CS(=O)(=O)NC(=O)CCCNC(=O)c1ccc(Nc2nc(NC3(c4ccc(Cl)cc4)CC3)nc(OCC(F)(F)F)n2)cc1 [Example 2019] | 0.5 to 100 |
| CCS(=O)(=O)NC(=O)[C@@]1(NC(=O)CCCNC(=O)c2ccc(Nc3nc(NC4(c5ccc(Cl)cc5)CC4)nc(OCC(F)(F)F)n3)cc2)C[C@H]1C1CC1(F)F (stereo partly drawn) [Example 2047] | 0.5 to 100 |
| CS(=O)(=O)NC(=O)CCNC(=O)CCCNC(=O)c1ccc(Nc2nc(NC3(c4ccc(Cl)cc4)CC3)nc(OCC(F)(F)F)n2)cc1 [Example 2059] | 0.5 to 100 |
| O=C(NS(=O)(=O)CCN1CCOCC1)c1ccc(Nc2nc(NC3(c4ccc(Cl)cc4)CC3)nc(OCC(F)(F)F)n2)cc1 [Example 1030] | 0.5 to 100 |
| CC(C)(C)OC(=O)NCCS(=O)(=O)NC(=O)c1ccc(Nc2nc(NC3(c4ccc(Cl)cn4)CC3)nc(OCC(F)(F)F)n2)cc1 [Example 8042] | 0.5 to 100 |
| CCS(=O)(=O)NC(=O)C1(CNC(=O)c2ccc(Nc3nc(NC4(c5ccc(Cl)cc5)CC4)nc(OCC(F)(F)F)n3)cc2)CC1 [Example 2073] | 0.5 to 100 |
| CC(C)NC(=O)NCCS(=O)(=O)NC(=O)c1ccc(Nc2nc(NC3(c4ccc(Cl)cc4)CC3)nc(OCC(F)(F)F)n2)cc1 [Example 1048] | 0.5 to 100 |
| CC(C)C(=O)NS(=O)(=O)c1ccc(Nc2nc(NC3(c4ccc(Cl)cc4)CC3)nc(OCC(F)(F)F)n2)cc1 [Example 8007] | 1000 to 5000 |
| CC(=O)N1CCN(CC2(S(=O)(=O)NC(=O)c3ccc(Nc4nc(NC5(c6ccc(Cl)cc6)CC5)nc(OCC(F)(F)F)n4)cc3)CC2)CC1 [Example 1018] | 0.5 to 100 |
| CS(=O)(=O)NC(=O)CCNC(=O)c1ccc(Nc2nc(NC3(c4ccc(Cl)cc4)CC3)nc(OCC(F)(F)F)n2)cc1 [Example 2018] | 0.5 to 100 |
| O=C(NS(=O)(=O)c1ccc(Nc2nc(NC3(c4ccc(Cl)cc4)CC3)nc(OCC(F)(F)F)n2)cc1)C1(CN2CCOCC2)CC1 [Example 3003] | 100 to 1000 |
| C[C@H](NC(=O)CCCNC(=O)c1ccc(Nc2nc(NC3(c4ccc(Cl)cc4)CC3)nc(OCC(F)(F)F)n2)cc1)C(=O)NS(C)(=O)=O [Example 2054] | 0.5 to 100 |
| O=C(NCCS(=O)(=O)NC(=O)c1ccc(Nc2nc(NC3(c4ccc(Cl)cc4)CC3)nc(OCC(F)(F)F)n2)cc1)Nc1cccnc1 [Example 1050] | 0.5 to 100 |
| C[C@H](NC(=O)CCCNC(=O)c1ccc(Nc2nc(NC3(c4ccc(Cl)cc4)CC3)nc(OCC(F)(F)F)n2)cc1)C(=O)NS(=O)(=O)N(C)C [Example 2056] | 0.5 to 100 |
| O=C(NS(=O)(=O)C1(CN2CC3CC3C2)CC1)c1ccc(Nc2nc(NC3(c4ccc(Cl)cc4)CC3)nc(OCC(F)(F)F)n2)cc1 (stereo not drawn) [Example 1024] | 0.5 to 100 |
| O=C(NS(=O)(=O)c1ccc(Nc2nc(NC3(c4ccc(Cl)cc4)CC3)nc(OCC(F)(F)F)n2)cc1)C1CC1 [Example 8006] | 1000 to 5000 |
| CS(=O)(=O)NC(=O)C1(CNC(=O)c2ccc(Nc3nc(NC4(c5ccc(Cl)cc5)CC4)nc(OCC(F)(F)F)n3)cc2)CC1 [Example 2071] | 0.5 to 100 |
| Cn1cnc(C[C@H](NC(=O)c2ccc(Nc3nc(NC4(c5ccc(Cl)cc5)CC4)nc(OCC(F)(F)F)n3)cc2)C(=O)N[C@]2(C(=O)NS(=O)(=O)C3CCC3)C[C@H]2C2CC2)c1 [Example 8020] | 0.5 to 100 |
| COc1ccc(S(=O)(=O)N2CCN(c3nc(Nc4ccc(C(=O)NS(=O)(=O)C5(CN(C)C)CC5)cc4)nc(OCC(F)(F)F)n3)CC2)cc1 [Example 8035] | 1000 to 5000 |
| CS(=O)(=O)NC(=O)CCCCNC(=O)c1ccc(Nc2nc(NC3(c4ccc(Cl)cc4)CC3)nc(OCC(F)(F)F)n2)cc1 [Example 2011] | 0.5 to 100 |
| Cc1cccc(C(=O)N2CCN(c3nc(Nc4ccc(C(=O)NS(=O)(=O)C5(CN(C)C)CC5)cc4)nc(OCC(F)(F)F)n3)CC2)c1 [Example 8038] | 1000 to 5000 |
| CCS(=O)(=O)NC(=O)c1ccc(Nc2nc(NC3(c4ccc(Cl)cc4)CC3)nc(OCC(F)(F)F)n2)cc1 [Example 1003] | 0.5 to 100 |
